Measurements published in ChEMBL document CHEMBL1201862, “PubChem BioAssay data set” (2004).
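The compound was tested at five concentrations on cells cultured in 96-well plates, with a 48-hour exposure period. GI50 marks 50% less growth.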 Active and inactive are the calls of the source. Cut-off read from the data, not from the text of the source: active = GI50 up to about 1.1 µM and inactive = higher.

Assays:
Assay in all cases: inhibition of tumour cell growth, NCI panel, 48 h
SK-MEL-28 = system: SK-MEL-28
SF-539 = system: SF-539
IGROV-1 = system: IGROV-1
A549 = system: A549
SR = system: SR
T47D = system: T47D
U-251 = system: U-251
SK-MEL-2 = system: SK-MEL-2
DU-145 = system: DU-145
A498 = system: A498
SK-OV-3 = system: SK-OV-3
SF-295 = system: SF-295
SNB-19 = system: SNB-19
EKVX = system: EKVX
PC-3 = system: PC-3
Malme-3M = system: Malme-3M
786-0 = system: 786-0
MDA-N = system: MDA-N
SN12C = system: SN12C
LOX IMVI = system: LOX IMVI

Compound	GI50 (SK-MEL-28)	GI50 (SF-539)	GI50 (IGROV-1)	GI50 (A549)	GI50 (SR)	GI50 (T47D)	GI50 (U-251)	GI50 (SK-MEL-2)	GI50 (DU-145)	GI50 (A498)	GI50 (SK-OV-3)	GI50 (SF-295)	GI50 (SNB-19)	GI50 (EKVX)	GI50 (PC-3)	GI50 (Malme-3M)	GI50 (786-0)	GI50 (MDA-N)	GI50 (SN12C)	GI50 (LOX IMVI)
Nn1c(S)nnc1CCCCCCCCc1nnc(S)n1N	> 100 µM (inactive)	> 100 µM (inactive)	> 100 µM (inactive)	> 100 µM (inactive)	> 100 µM (inactive)	> 100 µM (inactive)	> 100 µM (inactive)	> 100 µM (inactive)	> 100 µM (inactive)	> 100 µM (inactive)	> 100 µM (inactive)	> 100 µM (inactive)	> 100 µM (inactive)	> 100 µM (inactive)	> 100 µM (inactive)	> 100 µM (inactive)	> 100 µM (inactive)	> 100 µM (inactive)	> 100 µM (inactive)	
COc1ccc2c(c1)-c1c(c3cc(OC)ccc3n1CCN(C)C)CC2	15.9 µM (inactive)	15.4 µM (inactive)	12.1 µM (inactive)	15.4 µM (inactive)	7.03 µM (inactive)	17.6 µM (inactive)	11.2 µM (inactive)	14.5 µM (inactive)	13.7 µM (inactive)	11.7 µM (inactive)	21.5 µM (inactive)	17.8 µM (inactive)			12.6 µM (inactive)	16.1 µM (inactive)	10.8 µM (inactive)	14.2 µM (inactive)	12.9 µM (inactive)	
CC(C)(C)OC(=O)Cn1ncn(NC(=O)Cc2ccccc2)c1=S	> 10 µM (inactive)	> 10 µM (inactive)	> 10 µM (inactive)	> 10 µM (inactive)	> 10 µM (inactive)	> 10 µM (inactive)	> 10 µM (inactive)		> 10 µM (inactive)	> 10 µM (inactive)	> 10 µM (inactive)	> 10 µM (inactive)	> 10 µM (inactive)	> 10 µM (inactive)	> 10 µM (inactive)	> 10 µM (inactive)	> 10 µM (inactive)	> 10 µM (inactive)	> 10 µM (inactive)	> 10 µM (inactive)
CC1(C)C(CC(=O)O)CCCC1CC(=O)O (stereo not given)	> 100 µM (inactive)		> 100 µM (inactive)	> 100 µM (inactive)	> 100 µM (inactive)	> 100 µM (inactive)	> 100 µM (inactive)	> 100 µM (inactive)	> 100 µM (inactive)	> 100 µM (inactive)	> 100 µM (inactive)	> 100 µM (inactive)	> 100 µM (inactive)	> 100 µM (inactive)	> 100 µM (inactive)		> 100 µM (inactive)	> 100 µM (inactive)	> 100 µM (inactive)	> 100 µM (inactive)
Cc1cccc(Cl)c1NCC(O)CN1CCN(C)CC1 (stereo not given)	> 100 µM (inactive)		> 100 µM (inactive)	> 100 µM (inactive)	> 100 µM (inactive)	> 100 µM (inactive)	> 100 µM (inactive)	> 100 µM (inactive)	> 100 µM (inactive)	> 100 µM (inactive)		> 100 µM (inactive)	> 100 µM (inactive)	> 100 µM (inactive)	> 100 µM (inactive)	> 100 µM (inactive)	> 100 µM (inactive)	> 100 µM (inactive)	> 100 µM (inactive)	> 100 µM (inactive)
Cc1cc(=O)[nH]c2cc(NC(=O)C(C)NC(=O)C(C)NC(=O)C(C)NC(=O)OC(C)(C)C)ccc12 (stereo not given)	> 15 µM (inactive)	> 15 µM (inactive)	> 15 µM (inactive)	> 15 µM (inactive)	> 15 µM (inactive)	> 15 µM (inactive)	> 15 µM (inactive)	> 15 µM (inactive)	> 15 µM (inactive)	> 15 µM (inactive)		> 15 µM (inactive)	> 15 µM (inactive)	> 15 µM (inactive)	> 15 µM (inactive)		> 15 µM (inactive)	> 15 µM (inactive)	> 15 µM (inactive)	> 15 µM (inactive)
CC(=O)O[C@H]1C(=O)[C@@]2(C)[C@H]([C@H](OC(=O)C3CCCCC3)[C@]3(O)C[C@H](OC(=O)[C@H](O)[C@@H](NC(=O)C4CCCCC4)C4CCCCC4)C(C)=C1C3(C)C)[C@]1(OC(C)=O)CO[C@@H]1C[C@@H]2O	0.479 µM (active)	0.0366 µM (active)	0.027 µM (active)	0.0326 µM (active)	0.0082 µM (active)	0.0219 µM (active)	0.0117 µM (active)		0.151 µM (active)	0.0902 µM (active)	0.029 µM (active)	0.0321 µM (active)	0.057 µM (active)	5.61 µM (inactive)	0.016 µM (active)	0.0323 µM (active)	0.0171 µM (active)	0.0025 µM (active)	0.0942 µM (active)	0.0272 µM (active)
Cc1ccc2oc(=O)c3c(O)c4cccc(OC5OC(C)C6O[C@@H](c7ccccc7)OC6C5OC5OC(C)C(O)C(O)C5O)c4c4oc(=O)c1c2c34 (stereo not given in full)	0.159 µM (active)	0.0571 µM (active)	0.0264 µM (active)	0.0354 µM (active)	< 0.011 µM (active)	0.0585 µM (active)	0.0535 µM (active)	0.196 µM (active)	0.174 µM (active)	0.0274 µM (active)	0.2 µM (active)	0.0303 µM (active)	0.334 µM (active)	0.461 µM (active)	0.0955 µM (active)	0.441 µM (active)	0.0389 µM (active)	0.121 µM (active)	0.051 µM (active)	
O=c1[nH]nc(-c2cccc(Br)c2)[nH]1	> 100 µM (inactive)	> 100 µM (inactive)	> 100 µM (inactive)	> 100 µM (inactive)	> 100 µM (inactive)	> 100 µM (inactive)	> 100 µM (inactive)	> 100 µM (inactive)	> 100 µM (inactive)	> 100 µM (inactive)		> 100 µM (inactive)	> 100 µM (inactive)	2.48 µM (inactive)	> 100 µM (inactive)	> 100 µM (inactive)	> 100 µM (inactive)	> 100 µM (inactive)	> 100 µM (inactive)	> 100 µM (inactive)
CO[C@H]1/C=C/O[C@@]2(C)Oc3c(C)c(O)c4c(O)c(c(/C=N/N5CCN(C)CC5)c(O)c4c3C2=O)NC(=O)/C(C)=C\C=C\[C@H](C)[C@H](O)[C@@H](C)[C@@H](O)[C@@H](C)[C@H](OC(C)=O)[C@@H]1C [RIFAMPIN]	> 100 µM (inactive)		73.6 µM (inactive)	> 100 µM (inactive)	3.32 µM (inactive)	> 100 µM (inactive)		> 100 µM (inactive)	> 100 µM (inactive)	> 100 µM (inactive)	> 100 µM (inactive)			> 100 µM (inactive)	81.5 µM (inactive)	37.5 µM (inactive)	> 100 µM (inactive)	> 100 µM (inactive)	> 100 µM (inactive)	
CCOC(=O)C1C(c2ccc(O)c(OC)c2)c2c(n[nH]c2O)CC1(C)O (stereo not given)	> 100 µM (inactive)	> 100 µM (inactive)	> 100 µM (inactive)	> 100 µM (inactive)	> 100 µM (inactive)	> 100 µM (inactive)	> 100 µM (inactive)	> 100 µM (inactive)	> 100 µM (inactive)	> 100 µM (inactive)		> 100 µM (inactive)	> 100 µM (inactive)	> 100 µM (inactive)	> 100 µM (inactive)	> 100 µM (inactive)	> 100 µM (inactive)	> 100 µM (inactive)	> 100 µM (inactive)	> 100 µM (inactive)
